Measured values taken from PMC11649115, “In vitro safety evaluation of dopamine D3R antagonist, R-VK4-116, as a potential medication for the treatment of opioid use disorder” (PLOS ONE, 2024).
Where “and” joins values, the source holds several entries; their conditions need not be identical. Equal entries are not always repeated. Where two headings read alike, the source gives them in different places.

What was measured:
[1] = test system: oxycodone self-administration; parameters: method as in PMID 30555159; conditions: rodents, 5, 15 and 25 mg/kg ref 6; cited from earlier work
[2] = biological target: T1, OCT2 (Homo sapiens, UniProt O15244); assay: Transporter mediated assay (substrate/inhibitor), MDCK-II cells; type: in vitro ADME
T1 construct: expressed in transfected cells; host or cells: MDCK-II cells
T1 sequence (O15244 1-555): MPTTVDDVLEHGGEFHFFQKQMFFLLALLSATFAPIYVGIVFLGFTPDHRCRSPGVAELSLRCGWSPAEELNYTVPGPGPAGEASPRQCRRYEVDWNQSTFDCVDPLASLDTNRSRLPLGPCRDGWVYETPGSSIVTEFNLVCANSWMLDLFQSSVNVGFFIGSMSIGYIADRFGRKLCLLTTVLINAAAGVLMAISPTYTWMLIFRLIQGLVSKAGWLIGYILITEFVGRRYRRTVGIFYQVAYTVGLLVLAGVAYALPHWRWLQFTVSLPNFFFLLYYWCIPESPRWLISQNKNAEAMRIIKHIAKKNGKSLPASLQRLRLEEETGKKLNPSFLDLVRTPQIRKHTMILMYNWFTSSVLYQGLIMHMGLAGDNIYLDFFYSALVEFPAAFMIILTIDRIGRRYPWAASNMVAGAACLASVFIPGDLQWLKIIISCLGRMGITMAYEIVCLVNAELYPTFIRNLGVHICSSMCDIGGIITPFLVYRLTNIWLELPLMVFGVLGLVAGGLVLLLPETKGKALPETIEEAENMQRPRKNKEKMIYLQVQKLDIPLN
Protocol: The MDCK-II cells were treated to express the transporter of interest. The transport of each probe substrate was determined by radiometric detection (Fig 1 in S1 File). […] For the uptake assay, the net transporter-mediated uptake-rate (V) of the substrate by each SLC transporter was calculated as follows: Transporter–mediatedupdaterate(pmol/min/cm^2)=(Cellularaccumulationincellsexpressingthetransporter)−(Meancellularaccumulationincontrolcells)/Surfacearea×incubationtime
Fold of activity and percent inhibition were determined as follows: Foldofactivity=(Meanuptakerate)transporterexpressingcells/(Meanuptakerate)controlcells Percentinhibition=100−100×(Transport‐mediatedupdaterate)withinhibitor/(Transport‐mediatedupdaterate)vehiclecontrol

[3] = biological target: D3R; parameters: method as in PMID 31526003; conditions: read-out: binding affinity for D3R (Ki); cited from earlier work
[4] = test system: CYP2B6 mRNA; assay: CYP induction, mRNA, primary cultured human hepatocytes; conditions: primary cultured human hepatocytes, Fold Induction (CYP2B6 mRNA expression)
From the text: (§2) Rifampicin as a positive control and solvent (0.1% DMSO) vehicle control were also included. The acceptance criteria for CYP induction was ≥ 2-fold induction for significant CYP activity, while the acceptance criteria for CYP mRNA was ≥ 4-fold for significant CYP induction.

[5] = test system: CYP2B6; assay: as above; conditions: primary cultured human hepatocytes, Fold Induction (CYP2B6 mRNA expression)
From the text: as §2

[6] = test system: dog plasma proteins; assay: Plasma protein binding, Sephadex G-25 gel filtration; type: in vitro ADME
Protocol: (§1) The gel filtration used solid-phase extraction columns containing hydrated gel filtration beads (Sephadex G-25). […] In this method, the amount of analyte accompanying the proteins (i.e., protein-bound R-VK4-116) before and after filtration was assayed for analyte concentration by LC-MS/MS.

[7] = test system: rat plasma proteins; assay: as above; type: in vitro ADME
Protocol: as §1

[8] = as above; type: in vitro ADME; conditions: plasma; for fraction unbound at 2 h, 0.5 μM: nominal 0.5 μM; for fraction unbound at 2 h, 1 μM: nominal 1 μM
Protocol: as §1

[9] = biological target: hERG (Homo sapiens, UniProt Q12809); assay: CiPA IonChannelProfiler Cardiac Panel, QPatch
Sequence of hERG (Q12809 whole entry): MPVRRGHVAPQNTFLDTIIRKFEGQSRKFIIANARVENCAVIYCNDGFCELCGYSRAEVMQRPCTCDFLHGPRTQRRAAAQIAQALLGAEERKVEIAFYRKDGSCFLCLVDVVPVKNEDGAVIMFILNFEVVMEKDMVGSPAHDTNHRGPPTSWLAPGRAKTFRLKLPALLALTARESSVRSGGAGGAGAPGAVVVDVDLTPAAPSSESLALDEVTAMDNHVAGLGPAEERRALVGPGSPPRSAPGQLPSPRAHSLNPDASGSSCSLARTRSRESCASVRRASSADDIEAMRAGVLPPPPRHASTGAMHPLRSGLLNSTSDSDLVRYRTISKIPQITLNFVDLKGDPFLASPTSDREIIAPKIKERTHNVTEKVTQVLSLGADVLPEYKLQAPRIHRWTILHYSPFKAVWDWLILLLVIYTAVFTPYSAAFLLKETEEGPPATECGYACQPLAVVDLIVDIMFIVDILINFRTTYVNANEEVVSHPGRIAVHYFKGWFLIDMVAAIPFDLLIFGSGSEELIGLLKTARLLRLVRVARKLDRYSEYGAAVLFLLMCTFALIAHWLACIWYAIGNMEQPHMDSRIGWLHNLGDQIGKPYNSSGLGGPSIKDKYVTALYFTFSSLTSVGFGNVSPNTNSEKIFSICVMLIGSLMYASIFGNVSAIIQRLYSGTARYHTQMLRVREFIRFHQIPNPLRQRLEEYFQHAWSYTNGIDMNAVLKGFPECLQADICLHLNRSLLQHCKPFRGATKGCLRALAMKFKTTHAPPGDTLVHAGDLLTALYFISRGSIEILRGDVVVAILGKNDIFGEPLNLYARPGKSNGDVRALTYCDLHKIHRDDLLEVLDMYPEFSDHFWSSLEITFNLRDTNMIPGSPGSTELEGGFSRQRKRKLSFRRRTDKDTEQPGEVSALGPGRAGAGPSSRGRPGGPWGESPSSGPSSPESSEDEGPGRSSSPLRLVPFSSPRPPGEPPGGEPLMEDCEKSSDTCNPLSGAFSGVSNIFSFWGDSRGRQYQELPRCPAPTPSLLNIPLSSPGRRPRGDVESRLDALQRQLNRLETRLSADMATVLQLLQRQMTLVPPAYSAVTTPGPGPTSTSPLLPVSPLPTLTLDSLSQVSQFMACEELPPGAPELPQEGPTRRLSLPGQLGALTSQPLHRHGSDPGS

[10] = biological target: CYP3A4 (Homo sapiens, UniProt P08684); assay: in vitro; conditions: microsomes
Sequence of CYP3A4 (P08684 2-503): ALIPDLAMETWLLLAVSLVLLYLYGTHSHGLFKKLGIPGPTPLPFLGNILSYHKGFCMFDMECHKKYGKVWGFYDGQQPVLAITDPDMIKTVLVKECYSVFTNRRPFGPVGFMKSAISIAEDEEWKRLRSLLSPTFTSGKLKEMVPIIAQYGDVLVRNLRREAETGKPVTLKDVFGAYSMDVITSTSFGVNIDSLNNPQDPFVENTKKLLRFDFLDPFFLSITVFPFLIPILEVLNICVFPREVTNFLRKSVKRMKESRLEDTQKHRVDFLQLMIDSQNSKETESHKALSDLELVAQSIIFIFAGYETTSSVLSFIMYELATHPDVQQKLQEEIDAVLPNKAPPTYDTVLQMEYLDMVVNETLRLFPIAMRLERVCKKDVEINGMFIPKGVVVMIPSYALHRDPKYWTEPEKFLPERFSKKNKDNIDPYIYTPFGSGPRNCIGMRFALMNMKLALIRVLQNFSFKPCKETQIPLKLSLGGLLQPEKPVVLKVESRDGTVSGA

[11] = test system: HepG2 cells; assay: Lysosomal trapping assay (Lyso-ID Red); type: cell-based; conditions: HepG2, 0.1, 1.0, and 10.0 μM, up to 72 hr
Protocol: After incubation timepoint, the treated cells were washed and incubated with fluorescent dual color detection reagent for 60 min. Subsequently, the fluorescence was measured with Spectramax ID5. An increase in red signal without significant loss (no more than 30%) of the blue signal indicates the accumulation of test article within the cells arising from an increase in lysosome or lysosome-like vesicles in size and/or number. The assay results were presented as fluorescence fold change for red stain and blue stain individually and were calculated as follows: Fluorescencefoldchange=RelativeFluorescenceUnit(RFU)measuredfortestarticleconcentration/RFUmeasuredforrespectivesolventcontrol
The acceptance criteria for significant lysosomal perturbation was a ≥ 2-fold increase in red fluorescence with no loss of blue fluorescence.

[12] = test system: CYP1A2 mRNA; assay: CYP induction, mRNA, primary cultured human hepatocytes; type: in vitro ADME; conditions: read-out: CYP1A2 mRNA Fold Induction (fold of vehicle control)
From the text: as §2

[13] = dog, read-out: % Bound, Mean ± SD (converted)
[14] = rat, read-out: % Bound (converted)
[15] = rat, read-out: % Bound, Mean ± SD (converted)
[16] = CYP activity (% of Control) 3A4 (Midazolam)
[17] = CYP activity (% of Control) 3A4 (Testosterone)

CCc1cc(Cl)c(OC)c(N2CCN(CC(O)CCNC(=O)c3cc4ccccc4[nH]3)CC2)c1 (stereo not drawn) [R-VK4-116, N-(4-(4-(3-chloro-5-ethyl-2-methoxyphenyl)piperazin-1-yl)-3-hydroxybutyl)-1H-indole-2-carboxamide]
oxycodone self-administration [1]: decreased | fold difference in mean uptake rate (substrate test) ([2]; OCT2, 1 μM, transporter cells vs control cells): < 2 fold | Inhibition (%) ([2]; OCT2, 0.1% BSA, 10 μM): no statistically significant inhibition | inhibition at 10 µM ([2]; human, polarized monolayer of MDCK-II cells expressing OCT2, OCT2, 0.1% BSA, 10 μM): -17.4 ± 1.88% | Ki [3]: 7.4 nM | fold induction at 48 h, 10 µM ([4]; hepatocyte Lot 336, 10 µM): 1.9 | fold induction at 48 h, 0.01 µM ([4]; hepatocyte Lot 348B, 0.01 µM): 0.98 | fold induction at 48 h, 0.1 µM ([4]; hepatocyte Lot 348B, 0.1 µM): 1.2 | fold induction at 48 h, 1 µM ([4]; hepatocyte Lot 348B, 1 µM): 1 | fold induction at 48 h, 3 µM ([4]; hepatocyte Lot 348B, 3 µM): 1.1 | fold induction at 48 h, 5 µM ([4]; hepatocyte Lot 348B, 5 µM): 1.1 | fold induction at 48 h, 10 µM ([4]; hepatocyte Lot 348B, 10 µM): 1.1 | fold induction at 48 h, 0.01 µM ([4]; hepatocyte Lot 399, 0.01 µM): 1.1 | fold induction at 48 h, 0.01 µM ([5]; hepatocyte Lot 336, 0.01 µM): 1 | fold induction at 48 h, 0.1 µM ([5]; hepatocyte Lot 336, 0.1 µM): 1 | fold induction at 48 h, 1 µM ([5]; hepatocyte Lot 336, 1 µM): 1.3 | fold induction at 48 h, 3 µM ([5]; hepatocyte Lot 336, 3 µM): 1.9 | fold induction at 48 h, 5 µM ([5]; hepatocyte Lot 336, 5 µM): 1.8 | fold induction at 48 h, 0.1 µM ([5]; hepatocyte Lot 399, 0.1 µM): 1.2 | fold induction at 48 h, 1 µM ([5]; hepatocyte Lot 399, 1 µM): 1.2 | fold induction at 48 h, 3 µM ([5]; hepatocyte Lot 399, 3 µM): 1.3 | fold induction at 48 h, 5 µM ([5]; hepatocyte Lot 399, 5 µM): 1.2 | fold induction at 48 h, 10 µM ([5]; hepatocyte Lot 399, 10 µM): 1.2 | % Bound ([6]; nominal 0.5 μM): 92.1% and 80.8% and 77.9% | Ratio [R-VK4-116] Before Filtration / Eluate ([6]; nominal 0.5 μM): 1.25 and 1.24 | Ratio [R-VK4-116] Before Filtration / Eluate, Mean ± SD ([6]; nominal 0.5 μM): 1.25 ± 0.01 | [R-VK4-116] Before Filtration ([6]; nominal 0.5 μM): 0.618 µM and 0.616 µM and 0.609 µM | [R-VK4-116] In Sephadex G-25 Eluate ([6]; nominal 0.5 μM): 0.495 µM and 0.493 µM and 0.491 µM | % Bound ([6]; nominal 1 μM): 73.3% and 92.5% and 82.4% | Ratio [R-VK4-116] Before Filtration / Eluate ([6]; nominal 1 μM): 1.68 and 1.51 and 1.77 | Ratio [R-VK4-116] Before Filtration / Eluate, Mean ± SD ([6]; nominal 1 μM): 1.65 ± 0.13 | [R-VK4-116] Before Filtration ([6]; nominal 1 μM): 1.05 µM and 1.07 µM | [R-VK4-116] In Sephadex G-25 Eluate ([6]; nominal 1 μM): 0.626 µM and 0.707 µM and 0.604 µM | % Bound ([7]; nominal 0.5 μM): 79.3% and 86.7% | Ratio [R-VK4-116] Before Filtration / Eluate ([7]; nominal 0.5 μM): 1.18 and 1.20 | Ratio [R-VK4-116] Before Filtration / Eluate, Mean ± SD ([7]; nominal 0.5 μM): 1.19 ± 0.01 | [R-VK4-116] Before Filtration ([7]; nominal 0.5 μM): 0.631 µM and 0.630 µM | [R-VK4-116] In Sephadex G-25 Eluate ([7]; nominal 0.5 μM): 0.533 µM and 0.535 µM and 0.525 µM | % Bound ([7]; nominal 1 μM): 93.9% and 93.2% | Ratio [R-VK4-116] Before Filtration / Eluate ([7]; nominal 1 μM): 1.63 and 1.60 and 1.58 | Ratio [R-VK4-116] Before Filtration / Eluate, Mean ± SD ([7]; nominal 1 μM): 1.60 ± 0.02 | [R-VK4-116] Before Filtration ([7]; nominal 1 μM): 1.03 µM and 1.01 µM and 1.02 µM | [R-VK4-116] In Sephadex G-25 Eluate ([7]; nominal 1 μM): 0.632 µM and 0.647 µM | fraction unbound at 2 h, 0.5 μM [8, 13]: 0.164 | fraction unbound at 2 h, 1 μM [8, 13]: 0.173 | fraction unbound at 2 h, 0.5 μM [8, 14]: 0.164 | fraction unbound at 2 h, 0.5 μM [8, 15]: 0.168 | fraction unbound at 2 h, 1 μM [8, 14]: 0.086 | fraction unbound at 2 h, 1 μM [8, 15]: 0.072 | inhibition at 10 µM ([9]; 10 μM): 54.6% | inhibition at 100 µM ([9]; 100 μM): 82.3% | inhibition at 10 µM ([9]; ≥10 μM): 54 to 82% | activity at 20 min, 0.1 µM [10, 16]: 97.5 ± 3.9% | activity at 20 min, 0.3 µM [10, 16]: 93.9 ± 2.4% | activity at 20 min, 1 µM [10, 16]: 95.3 ± 0.9% | activity at 20 min, 3 µM [10, 16]: 95.6 ± 4.2% | activity at 20 min, 10 µM [10, 16]: 96.9 ± 2% | activity at 20 min, 30 µM [10, 16]: 92.2 ± 0.7% | activity at 20 min, 60 µM [10, 16]: 92.6 ± 1% | activity at 20 min, 100 µM [10, 16]: 96.9 ± 3.2% | activity at 20 min, 0.1 µM [10, 17]: 96.5 ± 3.6% | activity at 20 min, 0.3 µM [10, 17]: 93.2 ± 3.8% | activity at 20 min, 1 µM [10, 17]: 94.2 ± 2.4% | activity at 20 min, 3 µM [10, 17]: 92.8 ± 4.8% | activity at 20 min, 10 µM [10, 17]: 93.9 ± 2.1% | activity at 20 min, 30 µM [10, 17]: 94.2 ± 1.5% | activity at 20 min, 60 µM [10, 17]: 92.1 ± 1.1% | activity at 20 min, 100 µM [10, 17]: 95.5 ± 3.7% | red lysosomal stain signal / blue nuclear stain signal over solvent control [11]: No significant increase in red lysosomal stain signal or decrease in blue nuclear stain signal | fold induction at 48 h, 0.01 µM ([12]; Lot 336, 0.01 μM): 1.1 | fold induction at 48 h, 0.1 µM ([12]; Lot 336, 0.1 μM): 1.2 | fold induction at 48 h, 1 µM ([12]; Lot 336, 1 μM): 1.6 | fold induction at 48 h, 3 µM ([12]; Lot 336, 3 μM): 1.9 | fold induction at 48 h, 5 µM ([12]; Lot 336, 5 μM): 1.8 | fold induction at 48 h, 10 µM ([12]; Lot 336, 10 μM): 1.9 | fold induction at 48 h, 0.01 µM ([12]; Lot 348B, 0.01 μM): 1.1 | fold induction at 48 h, 0.1 µM ([12]; Lot 348B, 0.1 μM): 1.4 | fold induction at 48 h, 1 µM ([12]; Lot 348B, 1 μM): 1.3 | fold induction at 48 h, 3 µM ([12]; Lot 348B, 3 μM): 1.5 | fold induction at 48 h, 5 µM ([12]; Lot 348B, 5 μM): 1.6 | fold induction at 48 h, 10 µM ([12]; Lot 348B, 10 μM): 1.5 | fold induction at 48 h, 0.01 µM ([12]; Lot 399, 0.01 μM): 1.6 | fold induction at 48 h, 0.1 µM ([12]; Lot 399, 0.1 μM): 1.8 | fold induction at 48 h, 1 µM ([12]; Lot 399, 1 μM): 1.7 | fold induction at 48 h, 3 µM ([12]; Lot 399, 3 μM): 1.9 | fold induction at 48 h, 5 µM ([12]; Lot 399, 5 μM): 1.6 | fold induction at 48 h, 10 µM ([12]; Lot 399, 10 μM): 1.6
